Test results taken from ChEMBL document CHEMBL5649166, “RIP3 induces apoptosis independent of pronecrotic kinase activity” (Mol Cell, 2014).

Tests used:
[1] = biological target: T1, Serine/threonine-protein kinase A-Raf (Homo sapiens) (UniProt P10398); experiment: Inhibition of human ARAF using MEK1 (K97R) as substrate at 1 uM in presence of 32P-ATP by Hotspot assay relative to control; values are per cent of control
T1 sequence (whole entry): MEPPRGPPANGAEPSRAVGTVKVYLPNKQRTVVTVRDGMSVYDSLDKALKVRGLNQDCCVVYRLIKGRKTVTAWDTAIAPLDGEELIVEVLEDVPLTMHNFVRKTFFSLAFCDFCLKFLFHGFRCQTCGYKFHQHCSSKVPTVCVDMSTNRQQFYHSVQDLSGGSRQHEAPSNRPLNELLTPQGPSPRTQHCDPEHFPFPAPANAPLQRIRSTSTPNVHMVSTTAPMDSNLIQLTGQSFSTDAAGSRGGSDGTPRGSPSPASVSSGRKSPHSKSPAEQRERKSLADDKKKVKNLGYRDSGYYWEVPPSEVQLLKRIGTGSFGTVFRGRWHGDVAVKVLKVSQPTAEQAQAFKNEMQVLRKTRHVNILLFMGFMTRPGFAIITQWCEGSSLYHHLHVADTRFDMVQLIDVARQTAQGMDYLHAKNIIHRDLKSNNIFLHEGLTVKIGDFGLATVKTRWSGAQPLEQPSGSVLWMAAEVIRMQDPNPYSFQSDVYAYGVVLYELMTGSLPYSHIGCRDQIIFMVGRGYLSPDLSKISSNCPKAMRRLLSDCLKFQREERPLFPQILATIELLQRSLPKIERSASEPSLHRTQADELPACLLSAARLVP

[2] = biological target: T2, Aurora kinase C (Homo sapiens) (UniProt Q9UQB9); experiment: Inhibition of human Aurora C using H-LRRASLG as substrate at 1 uM in presence of 32P-ATP by Hotspot assay relative to control; values are per cent of control
T2 sequence (whole entry): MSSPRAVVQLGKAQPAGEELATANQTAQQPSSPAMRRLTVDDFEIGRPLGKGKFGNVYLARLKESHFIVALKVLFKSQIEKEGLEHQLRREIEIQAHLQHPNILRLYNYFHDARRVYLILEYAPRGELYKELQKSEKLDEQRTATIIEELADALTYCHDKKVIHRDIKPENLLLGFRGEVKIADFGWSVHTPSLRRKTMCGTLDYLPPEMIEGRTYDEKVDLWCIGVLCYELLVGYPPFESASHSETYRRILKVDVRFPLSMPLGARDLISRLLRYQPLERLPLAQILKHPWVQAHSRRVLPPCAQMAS

[3] = biological target: Calcium/calmodulin-dependent protein kinase type 1 (Homo sapiens) (UniProt Q14012); experiment: Inhibition of human CAMK1a using KKALRRQETVDAL as substrate at 1 uM in presence of 32P-ATP by Hotspot assay relative to control; values are per cent of control
[4] = biological target: Tyrosine-protein kinase receptor UFO (Homo sapiens) (UniProt P30530); experiment: Inhibition of human AXL using poly[Glu:Tyr] (4:1) as substrate at 1 uM in presence of 32P-ATP by Hotspot assay relative to control; values are per cent of control
[5] = biological target: CDK6/cyclin D3 (Homo sapiens) (UniProt P30281+Q00534); experiment: Inhibition of human CDK6/cyclin D3 using RB Protein as substrate at 1 uM in presence of 32P-ATP by Hotspot assay relative to control; values are per cent of control
[6] = biological target: Ephrin type-A receptor 4 (Homo sapiens) (UniProt P54764); experiment: Inhibition of human EPHA4 using poly[Glu:Tyr] (4:1) as substrate at 1 uM in presence of 32P-ATP by Hotspot assay relative to control; values are per cent of control
[7] = biological target: T3, Serine/threonine-protein kinase Nek2 (Homo sapiens) (UniProt P51955); experiment: Inhibition of human NEK2 using myelin basic protein as substrate at 1 uM in presence of 32P-ATP by Hotspot assay relative to control; values are per cent of control
T3 sequence (whole entry): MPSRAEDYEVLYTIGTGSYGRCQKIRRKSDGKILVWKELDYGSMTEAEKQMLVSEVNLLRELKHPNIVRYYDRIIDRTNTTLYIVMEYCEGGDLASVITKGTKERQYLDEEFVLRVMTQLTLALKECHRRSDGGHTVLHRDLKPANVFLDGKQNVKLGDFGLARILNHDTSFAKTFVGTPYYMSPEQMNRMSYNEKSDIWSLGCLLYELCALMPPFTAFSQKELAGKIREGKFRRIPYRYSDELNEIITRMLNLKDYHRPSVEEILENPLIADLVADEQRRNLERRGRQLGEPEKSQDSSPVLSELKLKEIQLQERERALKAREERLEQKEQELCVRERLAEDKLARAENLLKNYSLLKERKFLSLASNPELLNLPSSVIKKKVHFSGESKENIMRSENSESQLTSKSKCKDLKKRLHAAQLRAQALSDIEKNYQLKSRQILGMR

[8] = biological target: Homeodomain-interacting protein kinase 1 (Homo sapiens) (UniProt Q86Z02); experiment: Inhibition of human HIPK1 using myelin basic protein as substrate at 1 uM in presence of 32P-ATP by Hotspot assay relative to control; values are per cent of control
[9] = biological target: T4, Testis-specific serine/threonine-protein kinase 2 (Homo sapiens) (UniProt Q96PF2); experiment: Inhibition of human TSSK2 using KKKVSRSGLYRSPSMPENLNRPR as substrate at 1 uM in presence of 32P-ATP by Hotspot assay relative to control; values are per cent of control
T4 sequence (whole entry): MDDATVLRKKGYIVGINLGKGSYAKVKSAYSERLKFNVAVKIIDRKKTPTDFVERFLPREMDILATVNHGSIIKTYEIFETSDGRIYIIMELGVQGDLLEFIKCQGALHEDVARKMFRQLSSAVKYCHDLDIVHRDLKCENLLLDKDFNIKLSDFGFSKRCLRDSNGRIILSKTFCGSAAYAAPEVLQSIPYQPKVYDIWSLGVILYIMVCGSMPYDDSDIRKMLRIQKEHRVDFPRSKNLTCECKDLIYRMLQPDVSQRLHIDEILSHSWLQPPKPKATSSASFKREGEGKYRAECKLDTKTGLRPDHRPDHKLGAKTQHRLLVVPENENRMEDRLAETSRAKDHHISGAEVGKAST

[10] = biological target: Serine/threonine-protein kinase 24 (Homo sapiens) (UniProt Q9Y6E0); experiment: Inhibition of human MST3/STK24 using myelin basic protein as substrate at 1 uM in presence of 32P-ATP by Hotspot assay relative to control; values are per cent of control
Serine/threonine-protein kinase 24 (Homo sapiens), sequence (Q9Y6E0 whole entry, looked up): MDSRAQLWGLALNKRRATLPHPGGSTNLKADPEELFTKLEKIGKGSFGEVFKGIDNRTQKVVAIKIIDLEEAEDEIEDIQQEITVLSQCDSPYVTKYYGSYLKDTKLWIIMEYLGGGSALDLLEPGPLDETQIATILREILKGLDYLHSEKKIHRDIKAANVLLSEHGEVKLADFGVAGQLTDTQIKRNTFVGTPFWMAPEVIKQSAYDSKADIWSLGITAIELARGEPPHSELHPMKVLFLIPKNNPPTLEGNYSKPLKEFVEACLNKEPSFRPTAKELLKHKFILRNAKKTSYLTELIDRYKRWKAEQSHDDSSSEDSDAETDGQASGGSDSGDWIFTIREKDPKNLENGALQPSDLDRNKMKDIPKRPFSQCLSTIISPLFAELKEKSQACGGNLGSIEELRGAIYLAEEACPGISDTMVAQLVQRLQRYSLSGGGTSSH

Ephrin type-A receptor 4 (Homo sapiens), sequence (P54764 whole entry): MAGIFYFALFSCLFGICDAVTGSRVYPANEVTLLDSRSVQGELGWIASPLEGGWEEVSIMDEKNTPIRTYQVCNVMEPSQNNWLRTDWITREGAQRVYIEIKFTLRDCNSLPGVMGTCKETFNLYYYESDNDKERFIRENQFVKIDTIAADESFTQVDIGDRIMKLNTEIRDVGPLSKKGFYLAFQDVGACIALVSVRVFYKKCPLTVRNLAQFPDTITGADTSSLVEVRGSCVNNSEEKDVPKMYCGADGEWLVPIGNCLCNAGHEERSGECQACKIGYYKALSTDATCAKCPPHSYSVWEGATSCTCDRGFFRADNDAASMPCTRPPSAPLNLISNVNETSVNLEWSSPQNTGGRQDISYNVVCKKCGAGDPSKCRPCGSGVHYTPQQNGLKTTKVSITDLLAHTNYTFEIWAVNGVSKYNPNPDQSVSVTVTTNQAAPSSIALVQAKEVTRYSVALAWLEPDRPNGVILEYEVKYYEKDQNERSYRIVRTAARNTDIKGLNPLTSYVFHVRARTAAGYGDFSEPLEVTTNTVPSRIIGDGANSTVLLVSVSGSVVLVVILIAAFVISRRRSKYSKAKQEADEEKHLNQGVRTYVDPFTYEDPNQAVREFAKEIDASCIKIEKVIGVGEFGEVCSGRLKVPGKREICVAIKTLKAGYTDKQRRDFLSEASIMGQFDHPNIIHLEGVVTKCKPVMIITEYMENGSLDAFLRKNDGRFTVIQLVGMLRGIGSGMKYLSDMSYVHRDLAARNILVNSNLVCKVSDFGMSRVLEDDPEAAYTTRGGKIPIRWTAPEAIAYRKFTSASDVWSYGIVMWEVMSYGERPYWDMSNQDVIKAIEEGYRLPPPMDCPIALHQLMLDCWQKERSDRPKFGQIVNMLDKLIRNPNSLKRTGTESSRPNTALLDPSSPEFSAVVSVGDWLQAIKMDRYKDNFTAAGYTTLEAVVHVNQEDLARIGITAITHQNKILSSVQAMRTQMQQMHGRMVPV
Homeodomain-interacting protein kinase 1 (Homo sapiens), sequence (Q86Z02 whole entry, looked up): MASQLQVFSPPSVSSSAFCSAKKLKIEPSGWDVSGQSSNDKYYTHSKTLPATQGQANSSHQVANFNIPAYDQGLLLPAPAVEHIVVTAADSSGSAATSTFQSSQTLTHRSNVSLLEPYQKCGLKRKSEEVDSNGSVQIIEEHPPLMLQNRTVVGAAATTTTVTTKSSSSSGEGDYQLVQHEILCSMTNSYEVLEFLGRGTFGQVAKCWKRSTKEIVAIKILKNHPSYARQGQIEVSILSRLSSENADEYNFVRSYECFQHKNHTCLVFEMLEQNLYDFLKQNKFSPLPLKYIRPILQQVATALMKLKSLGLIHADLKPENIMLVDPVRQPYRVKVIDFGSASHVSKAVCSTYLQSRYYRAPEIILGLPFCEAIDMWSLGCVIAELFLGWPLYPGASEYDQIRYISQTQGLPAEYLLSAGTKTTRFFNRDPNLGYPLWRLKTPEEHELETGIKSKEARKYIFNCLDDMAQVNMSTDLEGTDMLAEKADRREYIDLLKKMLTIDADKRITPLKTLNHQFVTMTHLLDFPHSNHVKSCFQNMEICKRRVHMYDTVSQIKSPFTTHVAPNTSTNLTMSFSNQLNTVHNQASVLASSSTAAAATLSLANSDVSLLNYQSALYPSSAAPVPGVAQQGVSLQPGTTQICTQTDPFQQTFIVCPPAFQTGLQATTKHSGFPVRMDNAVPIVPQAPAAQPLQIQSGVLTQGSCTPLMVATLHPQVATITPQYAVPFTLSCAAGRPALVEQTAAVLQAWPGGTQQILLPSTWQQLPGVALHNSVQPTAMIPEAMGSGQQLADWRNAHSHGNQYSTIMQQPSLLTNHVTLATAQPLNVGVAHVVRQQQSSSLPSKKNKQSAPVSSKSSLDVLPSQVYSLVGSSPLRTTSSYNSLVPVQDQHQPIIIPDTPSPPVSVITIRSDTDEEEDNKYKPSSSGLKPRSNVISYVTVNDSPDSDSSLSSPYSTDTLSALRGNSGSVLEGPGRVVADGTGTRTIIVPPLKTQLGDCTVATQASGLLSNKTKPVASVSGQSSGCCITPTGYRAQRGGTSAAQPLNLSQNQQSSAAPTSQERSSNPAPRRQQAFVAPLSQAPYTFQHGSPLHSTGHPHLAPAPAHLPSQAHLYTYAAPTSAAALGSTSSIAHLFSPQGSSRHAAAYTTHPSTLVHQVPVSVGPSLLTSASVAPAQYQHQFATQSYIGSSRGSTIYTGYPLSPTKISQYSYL
Calcium/calmodulin-dependent protein kinase type 1 (Homo sapiens), sequence (Q14012 whole entry, looked up): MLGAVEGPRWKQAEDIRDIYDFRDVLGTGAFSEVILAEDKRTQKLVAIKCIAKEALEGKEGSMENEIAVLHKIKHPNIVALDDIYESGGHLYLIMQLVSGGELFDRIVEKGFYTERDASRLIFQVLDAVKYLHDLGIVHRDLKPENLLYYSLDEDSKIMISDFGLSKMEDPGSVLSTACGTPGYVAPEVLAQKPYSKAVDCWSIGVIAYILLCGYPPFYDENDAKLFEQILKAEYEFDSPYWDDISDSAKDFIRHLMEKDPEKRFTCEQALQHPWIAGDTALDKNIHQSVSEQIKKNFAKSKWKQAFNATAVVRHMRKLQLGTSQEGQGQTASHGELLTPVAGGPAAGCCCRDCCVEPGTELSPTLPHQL
Tyrosine-protein kinase receptor UFO (Homo sapiens), sequence (P30530 whole entry): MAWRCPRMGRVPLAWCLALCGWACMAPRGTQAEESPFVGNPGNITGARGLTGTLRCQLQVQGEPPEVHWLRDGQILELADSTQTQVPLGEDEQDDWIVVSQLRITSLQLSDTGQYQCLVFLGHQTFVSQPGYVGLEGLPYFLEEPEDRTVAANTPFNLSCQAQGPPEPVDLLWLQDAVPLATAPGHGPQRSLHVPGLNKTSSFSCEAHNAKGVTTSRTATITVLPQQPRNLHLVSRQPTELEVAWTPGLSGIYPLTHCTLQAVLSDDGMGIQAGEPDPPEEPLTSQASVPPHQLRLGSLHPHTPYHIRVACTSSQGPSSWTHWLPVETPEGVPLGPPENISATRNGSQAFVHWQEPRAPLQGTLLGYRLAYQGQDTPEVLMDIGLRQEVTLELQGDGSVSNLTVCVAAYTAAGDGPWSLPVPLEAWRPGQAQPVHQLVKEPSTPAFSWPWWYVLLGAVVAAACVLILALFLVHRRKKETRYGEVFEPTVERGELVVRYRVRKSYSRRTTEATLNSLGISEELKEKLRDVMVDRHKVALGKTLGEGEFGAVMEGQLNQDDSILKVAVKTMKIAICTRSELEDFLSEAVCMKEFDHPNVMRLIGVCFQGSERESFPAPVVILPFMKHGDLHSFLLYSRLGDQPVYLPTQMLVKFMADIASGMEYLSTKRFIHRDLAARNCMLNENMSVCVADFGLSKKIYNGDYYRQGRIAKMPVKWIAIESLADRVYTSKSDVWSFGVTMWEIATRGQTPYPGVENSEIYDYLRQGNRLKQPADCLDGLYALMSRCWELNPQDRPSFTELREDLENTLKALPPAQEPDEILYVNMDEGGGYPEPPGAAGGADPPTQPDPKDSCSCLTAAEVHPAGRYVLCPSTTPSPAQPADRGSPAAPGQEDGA

| Compound | residual activity [1] [%] | residual activity [2] [%] | residual activity [3] [%] | residual activity [4] [%] | residual activity [5] [%] | residual activity [6] [%] | residual activity [7] [%] | residual activity [8] [%] | residual activity [9] [%] | residual activity [10] [%] |
| --- | --- | --- | --- | --- | --- | --- | --- | --- | --- | --- |
| Cc1cc(-c2cnc(N)c3c(-c4ccc5scnc5c4)csc23)n(C)n1 | 65.3 | 91.3 | 97.4 | 101 | 89.6 | 48.9 | 101 | 102 | 97.2 | 93.9 |
| CC(C)S(=O)(=O)c1ccc2nccc(Nc3ccc4scnc4c3)c2c1 | 45.7 | 88.3 | 92.1 | 101 | 88.3 | 70.9 | 100 | 88.3 | 102 | 100 |
| CNC(=O)c1ccc2c(c1)ncn2-c1ccc(CC(=O)OC(C)(C)C)cc1 | 93.2 | 95.5 | 95 | 92.6 | 51.5 | 95.5 | 102 | 87.5 | 98.9 | 94 |
